Test results as given in article PMC9973354 (mBio, 2022).
Where two headings read alike, the source gives them in different places. Starred links: 1 amine or outer side, 2 acyl side, 3 side chain; linkers in the order of their positions; H or OH if unused. Positions of bridges follow the written chain, without caps; N, C: chain ends. Non-standard residues stand in square brackets, D forms with d. Residues, ends and D or L forms follow the SMILES beside them. ξ: configuration not given here. X1 = O=C([C@@H]1CCN=C2C(N[*:1])=Cc3cc(O)c(O)cc3N21)[*:2]; ξOrn(N(OH)CHO) = NC(CCCN(O)C=O)C(=O)O; Suc = O=C(CCC(=O)[*:2])[*:1]; ξK = NCCCCC(N)C(=O)O; ξS = NC(CO)C(=O)O

Key:
FpvB R648C = molecular target: T1, FpvB R648C (Pseudomonas aeruginosa, UniProt A0A0H2ZFZ5, R648C); assay: Fluorescence recovery assay (siderophore uptake by FpvB); assay type: cell-based
T1 sequence (A0A0H2ZFZ5 23-802 R648C): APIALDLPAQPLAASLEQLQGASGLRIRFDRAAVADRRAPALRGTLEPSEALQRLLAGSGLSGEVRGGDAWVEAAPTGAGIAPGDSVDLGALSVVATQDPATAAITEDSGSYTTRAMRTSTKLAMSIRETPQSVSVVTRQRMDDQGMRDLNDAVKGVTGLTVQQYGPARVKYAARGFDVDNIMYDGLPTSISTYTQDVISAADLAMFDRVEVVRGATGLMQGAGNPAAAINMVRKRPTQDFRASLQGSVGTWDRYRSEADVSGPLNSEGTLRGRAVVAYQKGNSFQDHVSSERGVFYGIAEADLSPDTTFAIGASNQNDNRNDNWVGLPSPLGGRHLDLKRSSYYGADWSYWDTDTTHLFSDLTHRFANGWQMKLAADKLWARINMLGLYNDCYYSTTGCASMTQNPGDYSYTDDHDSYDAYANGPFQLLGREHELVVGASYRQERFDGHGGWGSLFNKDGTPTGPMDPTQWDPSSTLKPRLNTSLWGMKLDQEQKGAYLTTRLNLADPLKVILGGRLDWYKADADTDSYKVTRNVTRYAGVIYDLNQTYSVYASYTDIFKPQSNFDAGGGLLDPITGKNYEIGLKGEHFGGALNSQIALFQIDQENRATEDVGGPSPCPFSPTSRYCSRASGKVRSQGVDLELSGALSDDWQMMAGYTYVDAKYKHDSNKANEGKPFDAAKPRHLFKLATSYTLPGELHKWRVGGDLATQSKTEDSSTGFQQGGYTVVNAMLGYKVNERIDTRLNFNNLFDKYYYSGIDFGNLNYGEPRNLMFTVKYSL
Procedure: Cells were equilibrated for 5 min prior to introduction of the siderophores. Fluorescence was recorded every min for 1 h. Carbonyl cyanide m-chlorophenylhydrazone (CCCP) was used as a control to inhibit fluorescence recovery through dissipation of the proton motive force (PMF) ([2], [3]), which is required for uptake.
Cells were cultured overnight in LB with carbenicillin (200 μg/mL) at 37°C with shaking at 200 rpm. Cells were subcultured (1:200 dilution) in 10:90 plus 2% arabinose for 4 h without carbenicillin at 37°C with shaking at 200 rpm. Cells were harvested by centrifugation for 5 min and 6,000 × g and resuspended in sterile 1× phosphate-buffered saline (PBS) (pH 7.4); 1× PBS was made from a 10× stock (80 g NaCl, 2 g KCl, 26.8 g Na2 HPO4-7H2O, 2.4 g KH2PO4 in 1 L of deionized H2O) with 10 μM Alexa Fluor 594 C5 maleimide for microscopy or fluorescein-5-maleimide for fluorescence quenching and recovery assays and incubated in the dark at […] for 30 min on a shaking incubator at 37°C (200 rpm). Excess dye was quenched with 1 mM dithiothreitol (DTT) (Sigma) to stop the reaction. Cells were washed 3× with PBS. For fluorescence recovery assays, cells were incubated with 1× PBS plus 0.4% glucose at 37°C with shaking at 200 rpm. […] Cells were spun down and washed 3× with 1× PBS and resuspended in 1× PBS for quenching assays and 1× PBS plus 0.4% glucose for fluorescence recovery assays.
For fluorescence quenching and recovery assays, cells were diluted to an OD600 of 0.1 for both types of assays, and 148 μL was added into wells of a 96-well black plate (Corning). Fluorescence was recorded for 5 min at 1-min intervals at 37°C (BioTek Neo; excitation, 494 nm; emission, 520 nm). […] Fluorescence was recorded immediately for quenching assays and for 1 h at 1-min intervals for fluorescence recovery assays. Background fluorescence was subtracted from all fluorescence readings and 1-F/F0 was used to calculate the degree of quenching, where F0 is the initial fluorescence. Kd was calculated using GraphPad Prism using a one-site specific binding model or a two-site model. […]

FpvB W347V R648C = molecular target: T2, FpvB W347V R648C (Pseudomonas aeruginosa, UniProt A0A0H2ZFZ5, R648C/W347V); assay: Whole-cell fluorescence quenching, FpvB W347V R648C; assay type: binding; conditions: FpvB W347V R648C
T2 sequence (A0A0H2ZFZ5 23-802 W347V/R648C): T1 sequence (A0A0H2ZFZ5 23-802 R648C)
Procedure: Quenching assays with the two xenosiderophores were repeated for the quadruple TBDT mutant expressing WT FpvB, FpvB R191A R648C, or W347V R648C.
Cells were cultured overnight in LB with carbenicillin (200 μg/mL) at 37°C with shaking at 200 rpm. Cells were subcultured (1:200 dilution) in 10:90 plus 2% arabinose for 4 h without carbenicillin at 37°C with shaking at 200 rpm. Cells were harvested by centrifugation for 5 min and 6,000 × g and resuspended in sterile 1× phosphate-buffered saline (PBS) (pH 7.4); 1× PBS was made from a 10× stock (80 g NaCl, 2 g KCl, 26.8 g Na2 HPO4-7H2O, 2.4 g KH2PO4 in 1 L of deionized H2O) with 10 μM Alexa Fluor 594 C5 maleimide for microscopy or fluorescein-5-maleimide for fluorescence quenching and recovery assays and incubated in the dark at room temperature for 30 min on a shaking incubator at 37°C (200 rpm). Excess dye was quenched with 1 mM dithiothreitol (DTT) (Sigma) to stop the reaction. Cells were washed 3× with PBS. For fluorescence recovery assays, cells were incubated with 1× PBS plus 0.4% glucose at 37°C with shaking at 200 rpm. Glucose was prepared as a 20% stock (wt/vol) in 1× PBS and filter sterilized. Cells were spun down and washed 3× with 1× PBS and resuspended in 1× PBS for quenching assays and 1× PBS plus 0.4% glucose for fluorescence recovery assays.
For fluorescence quenching and recovery assays, cells were diluted to an OD600 of 0.1 for both types of assays, and 148 μL was added into wells of a 96-well black plate (Corning). Fluorescence was recorded for 5 min at 1-min intervals at 37°C (BioTek Neo; excitation, 494 nm; emission, 520 nm). After 5 min, 2 μL of each serial dilution for ferrioxamine-Fe^3+, ferrichrome-Fe^3+, and pyoverdine-Fe^3+ or DMSO for vehicle controls was added to each well. Fluorescence was recorded immediately for quenching assays and for 1 h at 1-min intervals for fluorescence recovery assays. Background fluorescence was subtracted from all fluorescence readings and 1-F/F0 was used to calculate the degree of quenching, where F0 is the initial fluorescence. Kd was calculated using GraphPad Prism using a one-site specific binding model or a two-site model. For fluorescence recovery assays, background was subtracted from all fluorescence readings and F/F0 expressed as a percent of control was plotted versus time.

PA14 ΔfpvA ΔfpvB mutant = assay: Growth curves with DSX and siderophores, ΔfpvA ΔfpvB; assay type: cell-based, Pseudomonas aeruginosa; conditions: 20 h
Procedure: (§1) Supplementary file : FIG S1 (A) FpvB is expressed in WT PA14 and the ΔfpvA mutant grown in 10:90. PilF was used as a loading control for outer membrane proteins. (B) FpvA is expressed from WT PA14 grown in 10:90. […] PilF was used as a loading control for outer membrane proteins. (C) Growth curves of PA14 and mutants with DSX and different siderophores in 10:90. PA14, ΔfpvA, ΔfpvB, ΔfpvA ΔfpvB, and ΔpvdA ΔpchA strain growth. Blue indicates control, purple indicates treatment with 64 μg/mL DSX, yellow indicates treatment with 10 μg/mL pyoverdine (PA14), and red indicates treatment with 64 μg/mL DSX and 10 μg/mL pyoverdine (PA14). (D) ΔfpvA, ΔfpvA ΔfpvB, and ΔpvdA ΔpchA strain growth. Blue indicates control, purple indicates treatment with 64 μg/mL DSX, grey indicates treatment with 10 μg/mL ferrichrome, and red indicates treatment with 64 μg/mL DSX and 10 μg/mL ferrichrome. (E) ΔfpvA, ΔfpvA ΔfpvB, and ΔpvdA ΔpchA strain growth. […] Download FIG S1, EPS file, 8.5 MB.
(§2) Another explanation for the susceptibility of the ΔfpvA mutant to DSX is that the mutant produces less pyoverdine compared to WT cells due to loss of the signaling cascade that controls siderophore production in response to its binding to FpvA ([25]). To differentiate whether the fpvA mutant was susceptible to DSX because of reduced pyoverdine production or because FpvB was a poor pyoverdine transporter, we treated the WT, ΔfpvA, ΔfpvB, and ΔfpvA ΔfpvB strains with DSX (64 μg/mL) without and with exogenous pyoverdine (10 μg/mL) for 20 h (Fig. 1; see also Fig. S1C). Growth of the ΔfpvA mutant should be restored if there are functional pyoverdine transporters. […] The growth of the ΔfpvA ΔfpvB mutant was inhibited by DSX and pyoverdine, confirming previously published results ([18]).
(§3) As a control, a ΔpvdA ΔpchA mutant unable to make pyoverdine and pyochelin was also tested. Growth of this mutant was inhibited by DSX.

PA14 ΔfpvA mutant = assay: Growth curves with DSX and siderophores, ΔfpvA; assay type: cell-based, Pseudomonas aeruginosa; conditions: 20 h; for growth with siderophore in the presence of DSX: 64 μg/mL DSX + 10 μg/mL siderophore
Procedure: as §1, §2, §3

Structure (SMILES) | fluorescence recovery (FpvB R648C; siderophore at 1/2 Kd (1/2 Kd2 for ferrioxamine B), recorded for 1 h) | affinity (Kd not reached, no saturation at highest concentration) (FpvB W347V R648C) | growth versus control (PA14 ΔfpvA ΔfpvB mutant; DSX 64 μg/mL, pyoverdine 10 μg/mL) | growth with siderophore in the presence of DSX (PA14 ΔfpvA mutant) | growth versus control (PA14 ΔfpvA mutant; DSX 64 μg/mL or pyoverdine 10 μg/mL alone, 10:90) | fluorescence recovery (FpvB R648C) | Kd (FpvB W347V R648C; one-site model, read-out: Kd (converted)) | growth with siderophore in the presence of DSX (PA14 ΔfpvA ΔfpvB mutant; 64 μg/mL DSX + 10 μg/mL siderophore)
NCCCCC(NC(=O)C(CO)NC(=O)[C@@H]1CCN=C2C(NC(=O)CCC(=O)O)=Cc3cc(O)c(O)cc3N21)C(=O)NCC(=O)NC(CCCN(O)C=O)C(=O)NC1CCCCNC(=O)C(CO)NC(=O)C(CCCN(O)C=O)NC1=O (stereo partly drawn) [pyoverdine] (Suc-[X1][ξS][ξK]G[ξOrn(N(OH)CHO)][ξK][ξOrn(N(OH)CHO)][ξS]; lactam 6-C) | no recovery | reduced affinity | inhibited | restored growth compared to DSX alone | delayed growth | – | – | –
CC(=O)N(O)CCCCCNC(=O)CCC(=O)N(O)CCCCCNC(=O)CCC(=O)N(O)CCCCCN [ferrioxamine B] | – | – | – | rescued growth | – | ~ 50 % of the control | 874 µM | rescued growth
